Entries after “also recorded” stand apart in the source; their conditions may differ.
Experiments:
[1] = test system: HUVEC cord formation in co-culture with NHDF; assay: HUVEC/NHDF cord formation co-culture assay (in vitro angiogenesis, high content imaging); format: cell-based, human; conditions: for EC50: Homo sapiens, cord area normalized to control group, mean of two to four independent experiments, sigmoidal dose-response fit, read-out: observed EC50 of cord formation inhibition (cord area)
Protocol: In vitro HUVEC cord formation co-culture was performed using the AngioKit commercially available from TCScellworks (Buckingham, UK) adapted to a 24-well format. To test HUVEC and NHDF passage dependence effects, the co-culture was done in house adapted to a 96-well format. Briefly, HUVEC cells were co-cultured onto human dermal fibroblast feeder layers in Optimised medium (TCScellworks, Buckingham, UK) for a total of about 12 days. Treatment started the day when the plates were received; usually three to four days after initial plating. Medium with or without growth factors or compounds was replenished every 2 to 3 days. Cells were fixed with 70% cold ethanol at the end of the culture and processed for anti-CD31/Alexa 488 immunofluorescence. To visualize feeder layer fibroblasts, some cultures were stained using a polyclonal antibody against Vimentin (Abcam, Cambridge, Massachusetts) along with an Alexa 568 conjugated secondary antibody to examine the feeder cell integrity. Nuclear staining was performed using Hoechst staining (Invitrogen Molecular Probe, Carlsbad, California).
Immunofluorescence stained co-culture plates were scanned using ArrayScan VTI (Cellomics, Pittsburgh, Pennsylvania) and the multi-parameter tube formation Bioapplication was used for quantification. Morphological measurements included cord length, width, area, percent connected cord, branching node and segment count, nuclei per cord, angiogenic index (expressed as the percentage of area covered by connected tube), etc. General cytotoxicity was monitored by examination of the nuclear staining of the feed layers.

[2] = set-up: method as in PMID 15919970; conditions: cited from earlier work

CCN(CC)CCNC(=O)c1c(C)[nH]c(/C=C2\C(=O)Nc3ccc(F)cc32)c1C [Sunitinib]
effect on cord mass in length and area ([1]; 30 nM): significantly inhibited | number of connected cords, branching nodes, and segment measurements ([1]; 30 nM): all significantly reduced | number of nuclei per tube ([1]; 30 nM): significantly reduced | effect on angiogenesis / cord formation ([1]; 30 nM compound, compared to medium control): significantly inhibited angiogenesis; also recorded: drastically inhibited cord formation | EC50 [1]: 39 nM

O=C(Cc1ccc(-c2cnc3cc(-c4ccncc4)ccn23)cc1)Nc1cccc(C(F)(F)F)c1 [LY2401401]
EC50 [1]: 9.2 nM

VEGF
effect on angiogenesis / cord formation ([1]; 20 ng/ml VEGF added to culture): significantly increased angiogenesis; also recorded: greatly enhanced

Clc1ccc(Nc2nnc(Cc3ccncc3)c3ccccc23)cc1 [PTK787]
EC50 [1]: 140 nM | outcome in clinical trials [2]: failed to achieve statistical significance
